Test results published in the supplement of paper PMC10307832.

Assays:
Test in all cases: relative viability (nuclei count vs DMSO), 5 days (fraction); higher = more cells survive
[1] = compound: CC(=O)Nc1cccc(-n2c(=O)n(C3CC3)c(=O)c3c(Nc4ccc(I)cc4F)n(C)c(=O)c(C)c32)c1 [Trametinib] + CC(C)C[C@H](NC(=O)[C@H](Cc1ccccc1)NC(=O)c1cnccn1)B(O)O [Bortezomib] (partner 0.002 µM)
Summary of the method: (§1)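 Relative viability equals treated-well nuclei counts divided by vehicle-well nuclei counts. Counts came from 4× images of lung cancer cell lines grown in 1536-well plates for 5 days after pin-tool dosing on the day after seeding. Dosing used one drug alone or a fixed anchor-drug dose plus five library-drug doses (not always all listed) in √10 steps, and values are medians of duplicate plates.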

[2] = compound: CN1C=C(C2=CC=CC=C21)/C=C\3/C4=C(C=CC=N4)NC3=O + CCNC(=O)c1noc(-c2cc(C(C)C)c(O)cc2O)c1-c1ccc(CN2CCOCC2)cc1 [Luminespib] (partner 0.01 µM)
Summary of the method: as §1

[3] = compound: CC(=O)Nc1cccc(-n2c(=O)n(C3CC3)c(=O)c3c(Nc4ccc(I)cc4F)n(C)c(=O)c(C)c32)c1 [Trametinib] + CC(=O)c1c(C)c2cnc(Nc3ccc(N4CCNCC4)cn3)nc2n(C2CCCC2)c1=O [Palbociclib] (partner 0.5 µM)
Summary of the method: as §1

[4] = compound: CC(=O)Nc1cccc(-n2c(=O)n(C3CC3)c(=O)c3c(Nc4ccc(I)cc4F)n(C)c(=O)c(C)c32)c1 [Trametinib] + Nc1nc2[nH]cc(CCc3ccc(C(=O)N[C@@H](CCC(=O)O)C(=O)O)cc3)c2c(=O)[nH]1 [Pemetrexed] (partner 0.2 µM)
Summary of the method: as §1

Cell Line | relative viability ([1]; first compound 0.0025 µM) | relative viability ([1]; first compound 0.007906 µM) | relative viability ([1]; first compound 0.025 µM) | relative viability ([1]; first compound 0.07906 µM) | relative viability ([1]; first compound 0.25 µM) | relative viability ([2]; first compound 0.02 µM) | relative viability ([2]; first compound 0.06325 µM) | relative viability ([2]; first compound 0.6325 µM) | relative viability ([2]; first compound 2 µM) | relative viability ([3]; first compound 0.0025 µM) | relative viability ([3]; first compound 0.007906 µM) | relative viability ([3]; first compound 0.025 µM) | relative viability ([3]; first compound 0.07906 µM) | relative viability ([3]; first compound 0.25 µM) | relative viability ([4]; first compound 0.0025 µM) | relative viability ([4]; first compound 0.007906 µM) | relative viability ([4]; first compound 0.025 µM) | relative viability ([4]; first compound 0.07906 µM) | relative viability ([4]; first compound 0.25 µM) | relative viability ([2]; first compound 0.2 µM)
Calu-6 | 1.08 | 0.813 | 0.376 | 0.236 | 0.224 |  |  |  |  |  |  |  |  |  |  |  |  |  |  | 
SW 900 |  |  |  |  |  | 0.191 | 0.186 | 0.165 | 0.176 | 0.56 | 0.49 | 0.483 | 0.457 | 0.383 | 0.439 | 0.471 | 0.487 | 0.459 | 0.224 | 
NCI-H650 | 1.06 | 1.15 | 0.791 | 0.729 | 0.276 | 0.573 | 0.775 | 0.757 | 0.889 | 0.421 | 0.469 | 0.487 | 0.535 | 0.374 | 1.12 | 1.31 | 1.01 | 1.06 | 0.884 | 
NCI-H460 | 1.03 | 0.82 | 0.544 | 0.346 | 0.043 | 0.0416 | 0.0387 | 0.0268 | 0.0415 | 0.152 | 0.0859 | 0.0921 | 0.018 | 0.0172 | 0.0594 | 0.0614 | 0.0626 | 0.0649 | 0.0564 | 0.0352
NCI-H2228 | 1.02 | 0.876 | 0.801 | 0.711 | 0.433 | 0.214 | 0.0886 |  | 0.132 | 0.649 | 0.595 | 0.57 | 0.369 | 0.235 | 0.369 | 0.301 | 0.339 | 0.295 | 0.208 | 
NCI-H2085 | 0.994 | 0.799 | 0.751 | 0.783 | 0.6 | 0.454 | 0.412 | 0.411 | 0.485 | 0.494 | 0.421 | 0.371 | 0.395 | 0.406 | 0.752 | 0.676 | 0.545 | 0.528 | 0.516 | 0.436
HCC-366 | 0.962 | 0.897 | 0.902 | 0.645 | 0.172 |  |  |  |  | 0.307 | 0.287 | 0.137 | 0.0839 | 0.0678 | 0.24 | 0.213 | 0.236 | 0.188 | 0.169 | 
EPLC-272H | 1.02 | 0.841 | 0.516 | 0.737 | 0.157 | 0.156 | 0.309 |  | 0.383 | 0.293 | 0.303 | 0.262 | 0.207 | 0.239 | 0.318 | 0.328 | 0.287 | 0.294 | 0.27 | 0.169
LK-2 |  |  |  |  |  |  |  | 0.189 | 0.186 | 0.551 | 0.603 | 0.704 | 0.738 | 0.223 | 0.226 | 0.305 | 0.213 | 0.184 | 0.102 | 
NCI-H2342 |  |  |  |  |  | 0.685 | 0.743 | 0.757 | 0.669 | 0.48 | 0.511 | 0.425 | 0.446 | 0.477 | 0.688 | 0.727 | 0.459 | 0.689 | 0.685 | 0.6
